Laboratory results: patent US5916906A, “Compositions comprising nicotinylalanine and an inhibitor of glycine conjugation or vitamin B6” (priority 1997, dated 1999)

What was measured:
[1] = Plasma nicotinamide, NAL and NAL-X levels by HPLC after i.p. nicotinylalanine with or without ASA in uninfected mice; assay type: in vivo, C57BL/6 mice; conditions: ASA at 20 and 100 mg/kg added to NAL
Protocol: The concentration of nicotinamide and its major metabolites were determined by comparison of peak area ratios of the unknown versus internal standard (6-methylnicotinamide, Sigma Chemical Company) to the standard curves run in control mouse blood plasma.
Mice were treated with racemic nicotinylalanine alone (400 mg/kg) or in combination with acetyl salicylic acid (ASA) at a dose of either 20 mg/kg or 100 mg/kg body weight. […] Control mice received the vehicle for the drug compositions, being phosphate buffered saline (PBS), at the same volume on the same dose schedule as the drug-treated mice. Chronic dosing was performed daily for two weeks, Monday through Friday, and one group of mice received only a single (acute) dose of nicotinylalanine. All mice were killed two hours after their final dose and blood was collected by cardiac puncture and stored on ice, until centrifugation in a microfuge at 10,000 rpm to obtain plasma.
Concentrations of nicotinamide, nicotinamide-oxide, 1-methyl-nicotinamide, and nicotinylalanine extracted from 90% methanol, dried under N2, and reconstituted in water as above were determined by comparison of the peak area ratios of the unknown vs. the internal standard to the standard curve. Concentrations of the unidentified nicotinylalanine metabolite (NAL-X) were determined in the same way as above, except peaks were compared to the standard curve for known nicotinylalanine. The results are expressed as nanomoles of nicotinamide and nicotinylalanine per ml of plasma (nmol/ml).

[2] = humans (Levy 1965); cited from earlier work
HIV-1 infected cells = conditions: cultures of HIV-1 infected cells (Yamagoe 1991); cited from earlier work
[3] = test system: poly (ADP-ribose) synthetase; conditions: crude or partially purified enzyme (Banasik 1992); cited from earlier work
[4] = human, in vivo; cited from earlier work
[5] = rodents (Shibata 1989); cited from earlier work
kynureninase = conditions: co-factor for kynureninase (Takeuchi and Shibata 1984); cited from earlier work

Structure (SMILES): CC(=O)Oc1ccccc1C(=O)O [ASA, acetylsalicylic acid, reference compound]
- Effect of added ASA on NAL-dependent nicotinamide plasma levels [1]: increases the NAL-dependent nicotinamide plasma levels in a dose-related manner
- Fraction conjugated to form salicyluric acid [2]: up to 75%

Structure (SMILES): NC(=O)c1ccccc1 [benzamide]
- Antiviral activity (in words) (HIV-1 infected cells): significant antiviral activity

Structure (SMILES): NC(=O)c1cccnc1 [nicotinamide]
- Antiviral activity (in words) (HIV-1 infected cells): significant antiviral activity
- Inhibition of poly (ADP-ribose) synthetase (in words) [3]: effective inhibitors of poly (ADP-ribose) synthetase
- Side effects [4]: without any significant side effects
- Fraction converted to nicotinuric acid [5]: approximately 16%

Structure (SMILES): Cc1ncc(COP(=O)(O)O)c(C=O)c1O [pyridoxal phosphate]
- Rate of conversion of nicotinylalanine to nicotinamide (in words) (kynureninase): increases the rate of conversion of nicotinylalanine to nicotinamide
